Drawing on US10519169B2, “3-(1H-pyrrolo[2,3-C]pyridin-2-yl)-1 H-pyrazolo[4,3-B]pyridines and therapeutic uses thereof” (Samumed, LLC, priority 2015, dated 2019), this text covers EC50 and inhibition for 9 compounds.

Common to all, as to type: cell-based
The subject of one assay is IL-6. The assay can be described thus: IL-6 inhibition in LPS-stimulated THP-1 cells (HTRF). The note with it: Homo sapiens; for EC50: LPS 500 ng/mL, 22 hours, IL6 HTRF; for inhibition at 10 µM: given for EC50 >10 μM, LPS, IL6, at 10 M [sic], read-out: percent inhibition at 10 M. Here is the method:
Human monocyte cell line (THP-1 cells; Catalog # TIB-202, ATCC, Manassas, Va.) were cultured in Roswell Park Memorial Institute (RPMI) 1640 Medium (Catalog #21870-100, Buffalo, N.Y.) with 1% L-glutamine, 1% HEPES, 1% Sodium Pyruvate, 2% Sodium Bicarbonate supplemented with 100 units/mL penicillin, 50 μg/mL streptomycin, 2-mercaptoethanol (0.05 mM) [basal medium] and 10% fetal bovine serum (Catalog #16140089, Life Technologies, Carlsbad, Calif.) at 37° C. and 5% CO2.
THP-1 cells were cultured in basal media with 1% FBS for 24 hours before the start of the assay. Each compound was dissolved in DMSO as a 10 mM stock and used to prepare compound source plates. Serial dilution (1:3, 10-point dose-response curves starting from 10 μM) and compound transfer was performed using the ECHO 550 (Labcyte, Sunnyvale, Calif.) into 384-well white low volume assay plates (Greiner Bio-One) with appropriate DMSO backfill for a final DMSO concentration of 0.1%. THP-1 cells were plated at 5000 cells/well in the 384-well plates and incubated at 37° C. for 2 h. 500 ng/mL of LPS was added after 2 hours and cells were incubated for another 22 hours at 37° C. Plates were spun in a centrifuge for 1 minute at […] and a mixture of anti-IL6 XL665, and anti-IL6 Cryptate diluted in reconstitution buffer (Cisbio Inc.) was added to each well. Following incubation for 3 hrs at room temperature, Homogeneous Time-Resolved Fluorescence (HTRF) was measured using the Envision (Perkin Elmer) at 665 nm and […]. The ratio of fluorescence at 665 nm to 620 nm was used as a readout for IL6 quantification. All samples were processed in duplicate. Readings were normalized to DMSO treated cells and normalized activities were utilized for EC50 calculations using the dose-response log (inhibitor) vs. response-variable slope (four parameters) nonlinear regression feature available in GraphPad Prism 5.0 (or Dotmatics). For EC50 of >10 μM, the percent inhibition at […] is provided.

Another assay concerns SW480 colon cancer cells. The assay can be described thus: Cell viability assay (CellTiter-Blue), SW480 cells. The note with it: Homo sapiens, 96 h, four days, CellTiter-Blue. On the procedure:
Representative compounds were screened using the following assay procedure to assess the effect on cell viability as described below.
Each compound was dissolved in DMSO as a 10 mM stock and used to prepare compound source plates. Serial dilution (1:3, 8-point dose-response curves from […]) and compound transfer was performed using the ECHO 550 (Labcyte, Sunnyvale, Calif.) into 96-well clear bottom, black-walled plates (Corning-Costar).
Approximately 2×10^3 SW480 colon cancer cells were seeded into each well and allowed to incubate in the presence or absence of compound for four days at 37° C./5% CO2. Eight replicates of DMSO-treated cells served as controls and cells treated with compound were performed in duplicate.
After incubation, 20 μL of CellTiter-Blue (Promega) was added to each well allowed to incubate for approximately 3 hours. This reagent was a buffered solution which contains resazurin, metabolically active cells were able to reduce rezarurin (blue) into resorufin (pink) which was highly fluorescent. This measured fluorescence was used as a readout for cell viability.
After incubation, the plates were read at Ex 560 nm Em 590 nm (Cytation 3, BioTek). Dose-response curves were generated and EC50 concentration values were calculated using non-linear regression curve fit in the GraphPad Prism (San Diego, Calif.) or Dotmatics' Studies Software (Bishops Stortford, UK). For EC50 of >10 μM, the percent inhibition at 10 μM is provided.
For orientation: The colour change of resazurin is a common sign of viable cells or microbes.

Assay [1] concerns Wnt activity (Sp5-Luc reporter, TCF/LEF binding sites) in SW480 colon carcinoma cells. The assay can be described thus: Wnt activity screening assay, Sp5-Luc reporter gene in SW480 cells. As to conditions: Homo sapiens; for EC50: overnight incubation; for inhibition at 10 µM: given for EC50 >10 μM, read-out: percent inhibition at 10 μM. An excerpt: The screening assay for Wnt activity is described as follows. Reporter cell lines can be generated by stably transducing cancer cell lines (e.g., colon cancer) or primary cells (e.g., IEC-6 intestinal cells) with a lentiviral construct that includes a Wnt-responsive promoter driving expression of the firefly luciferase gene.
SW480 colon carcinoma cells were transduced with a lentiviral vector expressing luciferase with a human Sp5 promoter consisting of a sequence of eight TCF/LEF binding sites. SW480 cells stably expressing the Sp5-Luc reporter gene and a hygromycin resistance gene were selected by treatment with 150 μg/mL of hygromycin for 7 days. These stably transduced SW480 cells were expanded in cell culture and used for all further screening activities. Each compound was dissolved in DMSO as a 10 mM stock and used to prepare compound source plates. Serial dilution (1:3, 10-point dose-response curves starting from 10 μM) and compound transfer was performed using the ECHO 550 (Labcyte, Sunnyvale, Calif.) into 384-well white solid bottom assay plates (Greiner Bio-One) with appropriate DMSO backfill for a final DMSO concentration of 0.1%. For Sp5-Luc reporter gene assays, the cells were plated at 4,000 cells/well in 384-well plates with medium containing 1% fetal bovine serum and incubated overnight at 37° C. and 5% CO2. Following incubation, 20 μl of BrightGlo luminescence reagent (Promega) was added to each well of the 384-well assay plates. The plates were placed on an orbital shaker for 2 min and then luminescence was quantified using the Envision (Perkin Elmer) plate reader. Readings were normalized to DMSO only treated cells, and normalized activities were utilized for EC50 calculations using the dose-response log (inhibitor) vs. response-variable slope (four parameters) nonlinear regression feature available in GraphPad Prism 5.0 (or Dotmatics). For EC50 of >10 μM, the percent inhibition at 10 μM is provided.

In the case of `Fc1cccc(-c2cncc3[nH]c(-c4n[nH]c5ccc(-c6cccnc6)nc45)cc23)c1` [Compound 4, 3-(4-(3-Fluorophenyl)-1H-pyrrolo[2,3-c]pyridin-2-yl)-5-(pyridin-3-yl)-1H-pyrazolo[4,3-b]pyridine], the half-maximal effective concentration (EC50) came to 0.266 µM with IL-6, 0.475 µM with SW480 colon cancer cells and 0.255 µM in assay [1].

For `CN(C)c1cncc(-c2ccc3[nH]nc(-c4cc5c(-c6cccc(F)c6)cncc5[nH]4)c3n2)c1` [Compound 7, 5-(3-(4-(3-Fluorophenyl)-1H-pyrrolo[2,3-c]pyridin-2-yl)-1H-pyrazolo[4,3-b]pyridin-5-yl)-N,N-dimethylpyridin-3-amine], the results for the EC50 (in the assay with IL-6; in the assay with SW480 colon cancer cells; in assay [1]) were 0.038 µM, 0.357 µM and 0.516 µM, respectively.

Consider `Fc1cccc(-c2cncc3[nH]c(-c4n[nH]c5ccc(-c6cncc(CN7CCCCC7)c6)nc45)cc23)c1` [Compound 15, 3-(4-(3-Fluorophenyl)-1H-pyrrolo[2,3-c]pyridin-2-yl)-5-(5-(piperidin-1-ylmethyl)pyridin-3-yl)-1H-pyrazolo[4,3-b]pyridine], for which the EC50 is over 10 µM in the assay on IL-6, 4.61 µM in the assay on SW480 colon cancer cells and 3.71 µM in assay [1]. For the same compound, in the assay with IL-6, the inhibition at 10 µM was determined as 51.3%.

For the compound `Cc1ccncc1-c1ccc2[nH]nc(-c3cc4c(-c5ccc(F)cc5)cncc4[nH]3)c2n1` [Compound 33, 3-(4-(4-Fluorophenyl)-1H-pyrrolo[2,3-c]pyridin-2-yl)-5-(4-methylpyridin-3-yl)-1H-pyrazolo[4,3-b]pyridine], the EC50 with IL-6 is over 10 µM; with SW480 colon cancer cells, 1.86 µM; in assay [1], over 10 µM. The values for the inhibition at 10 µM (in the assay on IL-6; in assay [1]) were 37.8% and 21.5%, respectively.

`O=C(Nc1cncc(-c2ccc3[nH]nc(-c4cc5c(-c6ccc(F)cc6)cncc5[nH]4)c3n2)c1)c1ccccc1` [Compound 39, N-(5-(3-(4-(4-Fluorophenyl)-1H-pyrrolo[2,3-c]pyridin-2-yl)-1H-pyrazolo [4,3-b]pyridin-5-yl)pyridin-3-yl)benzamide]: the EC50 in the assay on IL-6 was over 10 µM; in the assay with SW480 colon cancer cells it was 2.31 µM; in assay [1], 3.43 µM. Further, in the assay on IL-6, the inhibition at 10 µM is 33.1%.

Regarding `Fc1ccc(-c2cncc3[nH]c(-c4n[nH]c5ccc(-c6cncc(CN7CCC(F)(F)C7)c6)nc45)cc23)cc1` [Compound 54, 5-(5-((3,3-Difluoropyrrolidin-1-yl)methyl)pyridin-3-yl)-3-(4-(4-fluorophenyl)-1H-pyrrolo[2,3-c]pyridin-2-yl)-1H-pyrazolo[4,3-b]pyridine], the values for the EC50 (with IL-6; in the assay on SW480 colon cancer cells; in assay [1]) were 0.177 µM, 0.827 µM and 0.751 µM, respectively.

As for `CN(C)Cc1cncc(-c2ccc3[nH]nc(-c4cc5c(-c6ccccc6F)cncc5[nH]4)c3n2)c1` [Compound 69, 1-(5-(3-(4-(2-Fluorophenyl)-1H-pyrrolo[2,3-c]pyridin-2-yl)-1H-pyrazolo [4,3-b]pyridin-5-yl)pyridin-3-yl)-N,N-dimethylmethanamine], the EC50 in the assay on IL-6 is 1.15 µM; in the assay on SW480 colon cancer cells, 0.557 µM; in assay [1] it was 1.51 µM.

Turning to `Cc1ccncc1-c1ccc2[nH]nc(-c3cc4c(-c5cccnc5)cncc4[nH]3)c2n1` [Compound 89, 5-(4-Methylpyridin-3-yl)-3-(4-(pyridin-3-yl)-1H-pyrrolo[2,3-c]pyridin-2-yl)-1H-pyrazolo[4,3-b]pyridine], the concentration for a half-maximal effect (EC50) was 0.424 µM with IL-6, 8.84 µM in the assay with SW480 colon cancer cells and over 10 µM in assay [1]. Besides, the inhibition at 10 µM in assay [1] was 35.4%.

Consider `FC1(F)CCN(Cc2cncc(-c3ccc4[nH]nc(-c5cc6c(-c7cccnc7)cncc6[nH]5)c4n3)c2)C1` [Compound 110, 5-(5-((3,3-Difluoropyrrolidin-1-yl)methyl)pyridin-3-yl)-3-(4-(pyridin-3-yl)-1H-pyrrolo[2,3-c]pyridin-2-yl)-1H-pyrazolo[4,3-b]pyridine], for which the EC50 in the assay on IL-6 is 0.38 µM; in the assay on SW480 colon cancer cells it was 4.86 µM; in assay [1] it was 3.85 µM.

The term EC50 denotes the midpoint of the concentration-response curve. A higher EC50 goes with a need for much substance. The inhibition is the relative decrease from the control value, in per cent.
